Reference: patent US10239918B2, “Cahuitamycins and methods of making and using the same” (THE REGENTS OF THE UNIVERSITY OF MICHIGAN, priority 2015, dated 2019)
Read-outs that look alike come from different tables or passages of the source.

Legend:
A. baumanii biofilm = assay: confocal microscope imaging of biofilm on glass plate (SYTO 9 / propidium iodide); assay type: cell-based, Acinetobacter baumannii; details: glass plate treated with 240 nM
Method: (§1) Next, the specific stage of inhibition during biofilm formation was probed as well as the extent of inhibition through a flow cell assay. […] In addition, confocal microscope imaging analysis of the A. baumanii biofilm was conducted. In this assay, the biofilm was developed on a glass plate and left untreated as a control or treated with only 240 nM of 1 and 3. After treatment with STYO® 9 stain and propidium iodide (PI) the biofilm structure was observed.

[1] = system: A. baumannii ATCC 17978 biofilm; assay: flow cell biofilm assay; assay type: cell-based, Acinetobacter baumannii ATCC 17978; details: 7.5 μg/ml in flow media
Method: as §1
Biofilms were formed by A. baumannii ATCC 17978 in flow chambers at room temperature. Images were taken at 1 h, 6 h and 24 h (by using a 60× lens) after inoculation. A flow cell biofilm was achieved by using a flow cell chamber (ACCFL0001, Life Science Incorporated, Greensboro, N.C.). Briefly, overnight cultures of A. baumannii ATCC 17978 grown in MHII broth at 37° C. were diluted 100 fold with fresh MHII broth. 1 ml of dilution was injected into a flow cell chamber and allowed to settle one hour for attaching of bacteria followed by initiation media flow. Flow media was 10% MHII broth (control), or 10% MHII broth with 7.5 μg/ml of desferoxamine, or MHII broth with 7.5 μg/ml of cahuitamycins A. The flow rate was 4 ml/hr. Micrographs of the biofilm were acquired at 1 h, 6 h and 24 h by using an Olympus IX70 microscope with 60× lens

A. baumannii growth = assay: inhibition of A. baumannii growth; assay type: cell-based, Acinetobacter baumannii; details: for effect on bacterial growth: A. baumannii, apo form
[2] = system: A. baumannii biofilm formation; assay: static biofilm assay, crystal violet staining and optical density; assay type: cell-based, Acinetobacter baumannii ATCC 17978; details: for effect on biofilm formation: apo form; for IC50: Acinetobacter baumannii, read-out: IC50, inhibition of biofilm formation
Description: In an effort to discover new antibiotics, a marine microbial-derived NPE library was screened to identify biofilm inhibitors in A. baumannii. Natural products accounts for the majority of currently marketed drugs,^10 and the marine environment represents a potential new source of unique chemical entities.^11 A crystal violet based high throughput assay was used to query against a library of 9,831 marine microbial derived NPEs in order to identify the extracts inhibiting biofilm formation as primary screen. The active extracts obtained in primary high-throughput screening were further prioritized by setting the inhibition threshold to 50% followed by a dose response assay, yielding 31 active NPEs.
Primarily, the static biofilm assay using 1-3 was conducted using crystal violet staining followed by optical density measurements (FIG. 3). […] However, loss of inhibition of biofilm over time can be directly attributed to the metal-complexed cahuitamycins.
A static biofilm assay was developed from a previously reported method.^10 The biofilm assay measures the adhesion of bacteria to the surface of polystyrene 384 well microtiter plates. Adherent cells are detected by staining with Crystal Violet and subsequent washing to remove nonadherent planktonic cells. Inhibitors of biofilm formation prevent the bacteria from adhering to the surface of the microtiter plate and reduce the amount of Crystal Violet retained after washing. Assay quantification was performed by OD600 absorbance measurement of the Crystal Violet stained biofilm. The assay was optimized for plate surface treatment, time, temperature, media, media concentration, Crystal Violet concentration, wash method, inhibitor sensitivity, and culture inoculum preparation.
The A. baumannii test strain (ATCC 17978) was maintained as a frozen stock at −80° C. in 20% glycerol. On the morning of the assay, 5 ml of Mueller Hinton II cation adjusted media (Becton Dickinson cat. 212322) was inoculated and grown at 37° C., 180 rpm shaking for 4-6 h. The culture was then diluted 1:50 and incubated an additional 2 h. The resulting cells were washed four times by centrifugation and resuspension of the pellet in media was performed to remove any metabolites or cell signaling factors. The assay inoculum was prepared by diluting the cells to 0.008 OD600 in 10% Mueller Hinton II cation adjusted media (diluted in 18 ohm deionized water). The assay plates (Corning cat. 3680, 384 well non-treated polystyrene) were prepared by dispensing 20 μl of 10% Mueller Hinton II cation adjusted media into columns 1-22 using a Multidrop Combi dispenser (ThermoFisher). The natural product extract samples were added as 0.2 μl of 15 mg/ml stocks in DMSO using a Biomek FX high density pintool (Beckman Coulter). Column 1 and 2 contained DMSO without natural product extracts and served as the negative control. The positive control was added to column 23 and 24 as 20 μl of 40 μM Baicalein (Sigma-Aldrich cat. 11712). The bacterial cells were added to the entire plate in 20 μl of the prepared inoculum using a Multidrop Combi dispenser (ThermoFisher). The resulting assay contained 40 μl of 10% Mueller Hinton II cation adjusted media with 0.004 OD600 bacterial cells, 0.5% DMSO, and 75 μg/ml natural product extract. The assay plates were incubated at 30° C. for 20 h, stationary, in a humidified incubator. The biofilm was stained by adding 10 μl of filtered 1% Crystal Violet and incubating for 30 minutes at room temperature. Excess Crystal Violet and nonadherent planktonic cells were removed by washing three times with 150 μl of PBS using an ELX405 plate washer (Biotek). The wash program used a low velocity dispense rate and an aspiration height of 3.8 mm; about 10 μl of PBS remained in the well after washing. The Crystal Violet stained biofilm was solubilized by the addition of 50 μl of 100% ethanol and allowed to develop overnight. Quantification was performed by measuring the OD600 absorbance using a Pherastar plate reader (BMG). […]

[3] = competition titrations with EDTA to determine iron-binding affinity (pFeIII); assay type: physicochemical; details: competition titration of Fe-cahuitamycin complex with EDTA, Hepes buffer pH 7.4, UV-vis; three individual titrations
Method: Determination of pFe^III for cahuitamycins was carried out as reported by Abergel et al. J. Am. […] Briefly, purified Fe-cahuitamycins, prepared as described above, was dissolved in Hepes buffer (10 mM Hepes, 0.1 M KCl, pH 7.4) and five different concentration ranges of ETDA were added from EDTA stock solutions also prepared in HEPES buffer. Each reaction consisted of a total volume of 0.25 mL, a final concentration of 0.1 mM Fe-cahuitamycins and a range of 5-fold-8000-fold EDTA (relative to Fe-cahuitamycins) in Hepes buffer. The reaction was allowed to equilibrate at room temperature for at least 24 h, and UV-visible spectra were subsequently recorded. The composite spectra contain contributions from both Fe-EDTA and Fe-cahuitamycins. The ε of both species as a function of λ, were determined in Hepes buffer and used to deconvolute the spectra. The contribution of Fe-cahuitamycins was subtracted from the composite spectra using the 435 nm absorption band and the ε of both Fe-cahuitamycins and Fe-EDTA were used to quantify the proportion of each species in solution. Concentrations of apo-EDTA and apo-cahuitamycins were calculated by subtracting [Fe-EDTA] (or [Fe-cahuitamycins]) from total initial EDTA (or Fe cahuitamycins). The log [EDTA]/[cahuitamycins] was plotted against log [Fe-EDTA]/[Fe-cahuitamycins] and the data were fit to the following equation, which has been derived by Abergel et al., J. Am.

[4] = reference value used for the calculation; cited from earlier work
[5] = compound tested in iron-complexed form
[6] = static biofilm assay, A. baumannii

SMILES: O=CN(O)CCC[C@@H](NC(=O)[C@H](CO)NC(=O)[C@@H]1COC(c2ccccc2O)=N1)C(=O)N1NCCC[C@@H]1C(=O)NCCC(=O)O [compound 1, Cahuitamycin A]
- biofilm thickness compared with the control (A. baumanii biofilm): much thinner biofilm
- total biomass compared with the control (A. baumanii biofilm): significantly less total biomass
- total biomass of biofilm (A. baumanii biofilm): 0.18 μm^3
- biofilm state in flow cell after 6 h of supplementation [1]: only a few micro colonies
- biofilm state in flow cell after 24 h of supplementation [1]: larger micro colonies and initiation of biofilm formation
- impact on growth, iron-complexed form (A. baumannii growth; [5]): almost no impact
- impact on biofilm formation, iron-complexed form [2, 5]: almost no impact
- effect on biofilm formation [2, 6]: able to inhibit
- pFe^III [3]: 18.34±0.16

SMILES: Cc1ccc(O)c(C2=N[C@H](C(=O)N[C@@H](CO)C(=O)N[C@H](CCCN(O)C=O)C(=O)N3NCCC[C@@H]3C(=O)NCCC(=O)O)CO2)c1 [compound 4, Cahuitamycin D]
- IC50 [2, 6]: 8.4 µM
- potency as biofilm inhibitor compared to 3 (cahuitamycin C) ([2]; static biofilm assay): almost twice the potency
- potency as biofilm inhibitor compared to 3 (cahuitamycin C) ([2]; static biofilm assay, listed as cahuitamycin analog D): twice as active

SMILES: O=CN(O)CCC[C@@H](NC(=O)[C@H](CO)NC(=O)[C@H](CO)NC(=O)c1ccccc1O)C(=O)N1NCCC[C@@H]1C(=O)NCCC(=O)O [compound 2, Cahuitamycin B]
- effect on bacterial growth (A. baumannii growth): no effects
- effect on biofilm formation [2, 6]: no effects
- pFe^III [3]: 20.42±0.09

SMILES: Cc1cccc(O)c1C1=N[C@H](C(=O)N[C@@H](CO)C(=O)N[C@H](CCCN(O)C=O)C(=O)N2NCCC[C@@H]2C(=O)NCCC(=O)O)CO1 [compound 3, Cahuitamycin C]
- biofilm thickness compared with the control (A. baumanii biofilm): much thinner biofilm
- total biomass compared with the control (A. baumanii biofilm): significantly less total biomass
- total biomass of biofilm (A. baumanii biofilm): 0.10 μm^3
- effect on bacterial growth (A. baumannii growth): limited effect
- IC50 [2, 6]: 14.5 µM
- pFe^III [3]: 17.52±0.12

SMILES: CC(=O)N(O)CCCCCNC(=O)CCC(=O)N(O)CCCCCNC(=O)CCC(=O)N(O)CCCCCN [desferoxamine, reference compound]
- biofilm state in flow cell after 6 h of supplementation [1]: formation of a robust biofilm
- biofilm state in flow cell after 24 h of supplementation [1]: biofilm became thicker

SMILES: O=CN(O)CCC[C@@H](NC(=O)[C@H](CO)NC(=O)[C@H](CO)NC(=O)c1ccccc1O)C(=O)N[C@H](CCCNO)C(=O)NCCC(=O)O [compound 5, Cahuitamycin E]
- IC50 [2]: 10.5 µM

SMILES: O=C(O)CN(CCN(CC(=O)O)CC(=O)O)CC(=O)O [EDTA]
- pFe^III (known stability constants for EDTA) [4]: 23.42
